Data taken from patent US11952365B2, “Anti-viral compounds” (Aligos Therapeutics, Inc., priority 2020, dated 2024).
Read-outs that look alike come from different tables or passages of the source.

How the values were obtained:
HRV3C = HRV3C (Human rhinovirus 14, UniProt P03303); assay: HRV3C protease assay (duplex, SAMDI-MS); format: biochemical, HRV
Summary of the method: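 HRV3C was preincubated 30 min with compound alongside 3CLpro at ambient temperature, then two biotinylated peptide substrates were added for 30 min. Quenching used 0.5% formic acid (final). Cleaved product was captured on neutravidin SAMDI arrays and quantified by MALDI-TOF as product/internal-standard AUC ratio; IC50 from four-parameter fit.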

in vitro [1] = details: African green monkey, VeroE6 + CP (CC50), Vero E6-eGFP cells with CP-100356, absence of virus, MTS
in vitro [2] = details: human
[3] = tested on: SARS-CoV-2-GHB-03021/2020; assay: SARS-CoV-2 Infection Model in Huh7 Cells; format: cell-based; details: Severe acute respiratory syndrome coronavirus 2, Huh-7, 96 h, SARS-CoV-2, day 4 p.i., MTS
[4] = tested on: human beta-coronavirus OC43; assay: microbe, parasite or virus in culture; format: cell-based; details: Betacoronavirus 1, OC43, HeLa, 144 h
3CLpro = 3CLpro (Severe acute respiratory syndrome coronavirus 2, UniProt P0DTD1); assay: SARS-CoV-2 3CLpro protease assay (duplex, SAMDI-MS); format: biochemical; set-up: For the duplex assay, 3CLpro and HRV3C was added; details: 30 mins preincubation, class symbols
[5] = Cytotoxicity plates without OC43 virus (cell-titer-glo); format: cell-based, human; details: human; HeLa cells without OC43 virus, class symbols
Summary of the method: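 Run as a virus-free counterpart of the OC43 cytopathic-effect assay. Attached HeLa cells received compound dilutions in EMEM with 2% FBS and were kept 6 days at 33 °C. Cell viability was then measured by CellTiter-Glo luminescence.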

[6] = tested on: SARS-CoV-2-GHB-03021/2020; assay: microbe, parasite or virus in culture; format: cell-based; details: Severe acute respiratory syndrome coronavirus 2, Vero C1008, 96 h; read-out: VeroE6 + CP (EC50)
human cathepsin L = target: T1, human cathepsin L (Homo sapiens, UniProt P07711); assay: cathepsin L assay; format: biochemical; details: 10 pM human cathepsin L, Z-FR-AMC 2 μM, class symbols
T1 construct: purchased R&D Systems
Summary of the method: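 Reactions began by adding 2 μM (final) Z-FR-AMC substrate to 10 pM human cathepsin L that had been preincubated 30 min with inhibitor. Kinetic AMC fluorescence at 355/460 nm over 30 min at 2-min intervals; four-parameter fitting gave IC50 values.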

[7] = HRV IC50, HRV3C, 30 mins preincubation, bound
[8] = OC43 in HeLa cells, 6 days at 33° C., class symbols, read-out: EC50
[9] = HRV3C, 30 mins preincubation, class symbols, read-out: HRV IC50
[10] = 3CLpro, read-out: SARS-Cov-2 IC50
[11] = HRV3C, 30 mins preincubation, bound, read-out: HRV IC50
[12] = HRV3C, printed bound without unit, read-out: HRV IC50

Row | Structure (SMILES) | IC50 (HRV3C; [7]) | CC50 (in vitro [1]; numeric bounds) | CC50 (in vitro [2]) | EC50 ([3]; class symbols) | EC50 [4, 8] | IC50 (3CLpro; SARS-Cov-2 IC50, 3CLpro) | CC50 at 6 days [5] | EC50 [6] | IC50 (human cathepsin L) | IC50 (HRV3C; [9]) | IC50 (3CLpro; [10]) | IC50 (HRV3C; [11]) | EC50 [4] | EC50 ([3]; numeric bounds) | EC50 ([4]; OC43 in HeLa cells, 6 days at 33° C., bound, read-out: EC50) | CC50 (in vitro [1]; class symbols) | IC50 (HRV3C; [12])
1 | COc1ccc(Cl)c2[nH]c(C(=O)N3C[C@@H]4CCC[C@@H]4[C@H]3C(=O)N[C@@H](C[C@@H]3CCNC3=O)C(=O)CO)cc12 [Compound 89, (1S,3aR,6aS)-2-(7-chloro-4-methoxy-1H-indole-2-carbonyl)-N-[(2S)-4-hydroxy-3-oxo-1-[(3S)-2-oxopyrrolidin-3-yl]butan-2-yl]-hexahydro-1H-cyclopenta[c]pyrrole-1-carboxamide] | > 10 µM | > 100 µM | > 50 µM | < 1 µM | 0.1 to 1 µM | < 0.02 µM | > 10 µM | < 1 µM | ≥ 10 µM |  |  |  |  |  |  |  | 
2 | O=C(NCc1ccccc1)C(=O)[C@H](C[C@@H]1CCNC1=O)NC(=O)[C@@H]1C[C@@]2(CN1C(=O)c1cc3ccccc3[nH]1)CC2(F)F [Compound 23] |  | > 100 µM | > 100 µM | 1 to 10 µM | 0.1 to 1 µM |  | > 10 µM | 1 to 10 µM | 0.1 to 1 µM | 2 to 20 µM | 0.02 to 0.2 µM |  |  |  |  |  | 
3 | O=C1NCC[C@H]1C[C@H](NC(=O)[C@@H]1[C@H]2CCC[C@H]2CN1C(=O)c1cc2c(Cl)cc(C(F)(F)F)cc2[nH]1)C(=O)CO [Compound 161, (1S,3aR,6aS)-2-[4-chloro-6-(trifluoromethyl)-1H-indole-2-carbonyl]-N-[(2S)-4-hydroxy-3-oxo-1-[(3S)-2-oxopyrrolidin-3-yl]butan-2-yl]-hexahydro-1H-cyclopenta[c]pyrrole-1-carboxamide] |  | > 50 µM | > 10 µM | < 1 µM | < 0.1 µM |  | > 10 µM | 1 to 10 µM | ≥ 10 µM |  | 0.02 to 0.2 µM | > 10 µM |  |  |  |  | 
4 | COc1cccc2[nH]c(C(=O)N3C[C@H](c4ccccc4)C[C@H]3C(=O)N[C@@H](C[C@@H]3CCNC3=O)C(=O)CO)cc12 [Compound 32] |  | > 100 µM | > 100 µM | 1 to 10 µM | 0.1 to 1 µM |  | > 10 µM | 1 to 10 µM | ≥ 10 µM | 0.2 to 2 µM | 0.02 to 0.2 µM |  |  |  |  |  | 
5 | O=C1NCC[C@H]1C[C@H](NC(=O)[C@@H]1[C@H]2CCC[C@H]2CN1C(=O)c1nc2c(Cl)ccc(Cl)c2[nH]1)C(=O)CO [Compound 139, (1S,3aR,6aS)-2-(4,7-dichloro-1H-1,3-benzodiazole-2-carbonyl)-N-[(2S)-4-hydroxy-3-oxo-1-[(3S)-2-oxopyrrolidin-3-yl]butan-2-yl]-hexahydro-1H-cyclopenta[c]pyrrole-1-carboxamide] | > 10 µM | > 50 µM | > 50 µM | < 1 µM |  |  | > 10 µM | < 1 µM | ≥ 10 µM |  | < 0.02 µM |  | 0.1 to 1 µM |  |  |  | 
6 | O=C1NCC[C@H]1C[C@H](NC(=O)[C@@H]1[C@H]2CCC[C@H]2CN1C(=O)c1cc(S(=O)(=O)c2ccccc2)c[nH]1)C(=O)CO [Compound 82, (1S,3aR,6aS)-2-[4-(benzenesulfonyl)-1H-pyrrole-2-carbonyl]-N-[(2S)-4-hydroxy-3-oxo-1-[(3S)-2-oxopyrrolidin-3-yl]butan-2-yl]-hexahydro-1H-cyclopenta[c]pyrrole-1-carboxamide] |  | > 50 µM | > 50 µM |  |  |  | > 10 µM | 10 to 100 µM | ≥ 10 µM | 2 to 20 µM | 0.02 to 0.2 µM |  |  | > 50 µM | > 10 µM |  | 
7 | O=C1NCC[C@H]1C[C@H](NC(=O)[C@@H]1[C@H]2CCC[C@H]2CN1C(=O)c1cc2c(Cl)ccc(OCc3ccccc3)c2[nH]1)C(=O)CO [Compound 128, (1S,3aR,6aS)-2-[7-(benzyloxy)-4-chloro-1H-indole-2-carbonyl]-N-[(2S)-4-hydroxy-3-oxo-1-[(3S)-2-oxopyrrolidin-3-yl]butan-2-yl]-hexahydro-1H-cyclopenta[c]pyrrole-1-carboxamide] |  |  | > 10 µM | < 1 µM | < 0.1 µM |  | > 10 µM | 1 to 10 µM | ≥ 10 µM |  | 0.02 to 0.2 µM | > 10 µM |  |  |  | > 10 µM | 
8 | O=C1NCC[C@H]1C[C@H](NC(=O)[C@@H]1[C@H]2CCC[C@H]2CN1C(=O)c1ccc(-c2ccccc2)[nH]1)C(=O)CO [Compound 144, (1S,3aR,6aS)—N-[(2S)-4-hydroxy-3-oxo-1-[(3S)-2-oxopyrrolidin-3-yl]butan-2-yl]-2-(5-phenyl-1H-pyrrole-2-carbonyl)-hexahydro-1H-cyclopenta[c]pyrrole-1-carboxamide] |  | > 50 µM | > 10 µM | 1 to 10 µM | 0.1 to 1 µM |  | > 10 µM | < 1 µM | ≥ 10 µM | 2 to 20 µM | 0.02 to 0.2 µM |  |  |  |  |  | 
9 | COc1cccc2[nH]c(C(=O)N3C[C@]4(C[C@H]3C(=O)N[C@@H](C[C@@H]3CCCNC3=O)C(=O)CO)CC4(F)F)cc12 [Compound 47, (3S,6S)-1,1-difluoro-N-[(2S)-4-hydroxy-3-oxo-1-[(3S)-2-oxopiperidin-3-yl]butan-2-yl]-5-(4-methoxy-1H-indole-2-carbonyl)-5-azaspiro[2.4]heptane-6-carboxamide] |  | > 100 µM | > 100 µM | 1 to 10 µM | 0.1 to 1 µM |  | > 10 µM | 1 to 10 µM | ≥ 10 µM | 2 to 20 µM | 0.02 to 0.2 µM |  |  |  |  |  | 
10 | O=C(NC1CC1)C(=O)[C@H](C[C@@H]1CCNC1=O)NC(=O)[C@@H]1CC2(CCN1C(=O)c1cc3c(C(F)(F)F)cccc3[nH]1)CC2 [Compound 170] |  | > 50 µM | > 10 µM | 1 to 10 µM | 1 to 10 µM |  | > 10 µM | 10 to 100 µM | 0.1 to 1 µM | 0.2 to 2 µM | 0.02 to 0.2 µM |  |  |  |  |  | 
11 | COc1cccc2[nH]c(C(=O)N3C[C@@H]4CCCC[C@@H]4[C@H]3C(=O)N[C@@H](C[C@@H]3CCCNC3=O)C(=O)COCc3ccccc3)cc12 (single isomer, unassigned) [Compound 59A_1] |  |  | > 10 µM | < 1 µM | 0.1 to 1 µM |  | > 10 µM | < 1 µM | ≥ 10 µM | 2 to 20 µM | 0.02 to 0.2 µM |  |  |  |  | > 10 µM | 
12 | O=C(NCc1ccccc1)C(=O)C(C[C@@H]1CCNC1=O)NC(=O)[C@@H]1C[C@@H](c2ccccc2)CN1C(=O)c1cc2ccccc2[nH]1 (stereo partly drawn) [Compound 7] |  |  | > 10 µM | 1 to 10 µM | 0.1 to 1 µM |  | > 10 µM | 1 to 10 µM | < 0.1 µM | 0.2 to 2 µM | 0.2 to 2 µM |  |  |  |  | > 10 µM | 
13 | COc1cccc2[nH]c(C(=O)N3C[C@@H]4CCC[C@@H]4[C@H]3C(=O)N[C@@H](C[C@H]3CC(C)(C)NC3=O)C(=O)CO)cc12 [Compound 70_2] |  | > 50 µM | > 50 µM | 10 to 100 µM | 1 to 10 µM |  | > 10 µM | 10 to 100 µM | ≥ 10 µM |  | 0.2 to 2 µM |  |  |  |  |  | > 10 µM
14 | COc1cccc2[nH]c(C(=O)N3C[C@@H]4CCC[C@@H]4[C@H]3C(=O)N[C@@H](C[C@@H]3CCNC3=O)C(=O)c3ncc[nH]3)cc12 [Compound 54, (1S,3aR,6aS)—N-[(2S)-1-(1H-imidazol-2-yl)-1-oxo-3-[(3S)-2-oxopyrrolidin-3-yl]propan-2-yl]-2-(4-methoxy-1H-indole-2-carbonyl)-hexahydro-1H-cyclopenta[c]pyrrole-1-carboxamide] |  | > 100 µM | > 100 µM |  | 10 to 100 µM |  | > 10 µM | > 100 µM | ≥ 10 µM |  | 2 to 20 µM |  |  | > 100 µM |  |  | > 10 µM
